From BindingDB's records for PubMed 7520908 (Janssen Research Foundation, 1994)
pKi: −log10 of the molar value. Several values for one entry are separate records, joined by “and”; a condition that tells them apart may be missing. Identical values can stand only once.

Assays:
[1] = molecular target: 5-hydroxytryptamine receptor 1B (Rattus norvegicus, UniProt P28564)
D(2) dopamine receptor = D(2) dopamine receptor (Rattus norvegicus, UniProt P61169)
[2] = molecular target: T1, 5-hydroxytryptamine receptor 2C (Sus scrofa, UniProt G7ZKZ7)
T1 sequence (G7ZKZ7 whole entry): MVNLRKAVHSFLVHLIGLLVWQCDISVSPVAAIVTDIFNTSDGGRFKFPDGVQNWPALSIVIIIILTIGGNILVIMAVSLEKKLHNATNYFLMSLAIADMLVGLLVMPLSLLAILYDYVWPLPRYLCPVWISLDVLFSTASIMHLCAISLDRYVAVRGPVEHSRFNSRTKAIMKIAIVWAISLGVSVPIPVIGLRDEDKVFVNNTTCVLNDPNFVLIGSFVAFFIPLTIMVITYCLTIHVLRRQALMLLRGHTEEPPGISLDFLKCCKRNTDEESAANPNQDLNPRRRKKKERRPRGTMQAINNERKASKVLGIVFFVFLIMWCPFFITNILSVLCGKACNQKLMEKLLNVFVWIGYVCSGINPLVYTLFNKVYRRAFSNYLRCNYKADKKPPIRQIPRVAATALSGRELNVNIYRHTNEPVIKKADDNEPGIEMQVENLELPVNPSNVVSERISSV

[3] = molecular target: 5-hydroxytryptamine 1D receptor (Bos taurus, UniProt Q8MI13)
[4] = molecular target: T2, 5-hydroxytryptamine receptor 3A (Mus musculus, UniProt P23979)
T2 sequence (P23979 whole entry): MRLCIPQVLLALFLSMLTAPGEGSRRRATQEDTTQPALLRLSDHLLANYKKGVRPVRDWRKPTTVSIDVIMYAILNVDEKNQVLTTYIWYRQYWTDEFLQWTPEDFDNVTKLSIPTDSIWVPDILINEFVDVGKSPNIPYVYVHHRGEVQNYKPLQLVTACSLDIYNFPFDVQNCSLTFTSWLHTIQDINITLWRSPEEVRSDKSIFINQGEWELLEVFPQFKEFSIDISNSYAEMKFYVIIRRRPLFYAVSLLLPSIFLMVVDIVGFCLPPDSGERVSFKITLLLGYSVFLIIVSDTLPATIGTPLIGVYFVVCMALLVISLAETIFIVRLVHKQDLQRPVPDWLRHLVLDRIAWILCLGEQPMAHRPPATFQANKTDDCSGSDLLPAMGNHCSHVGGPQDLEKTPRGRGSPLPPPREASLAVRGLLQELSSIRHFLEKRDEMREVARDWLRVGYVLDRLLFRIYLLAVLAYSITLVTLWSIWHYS

[5] = molecular target: 5-hydroxytryptamine receptor 1B (Homo sapiens, UniProt P28222)
D(1A) dopamine receptor = D(1A) dopamine receptor (Rattus norvegicus, UniProt P18901)
[6] = molecular target: 5-hydroxytryptamine receptor 2A (Rattus norvegicus, UniProt P14842)
D(3) dopamine receptor = D(3) dopamine receptor (Rattus norvegicus, UniProt P19020)
D(3) dopamine receptor, sequence (P19020 whole entry): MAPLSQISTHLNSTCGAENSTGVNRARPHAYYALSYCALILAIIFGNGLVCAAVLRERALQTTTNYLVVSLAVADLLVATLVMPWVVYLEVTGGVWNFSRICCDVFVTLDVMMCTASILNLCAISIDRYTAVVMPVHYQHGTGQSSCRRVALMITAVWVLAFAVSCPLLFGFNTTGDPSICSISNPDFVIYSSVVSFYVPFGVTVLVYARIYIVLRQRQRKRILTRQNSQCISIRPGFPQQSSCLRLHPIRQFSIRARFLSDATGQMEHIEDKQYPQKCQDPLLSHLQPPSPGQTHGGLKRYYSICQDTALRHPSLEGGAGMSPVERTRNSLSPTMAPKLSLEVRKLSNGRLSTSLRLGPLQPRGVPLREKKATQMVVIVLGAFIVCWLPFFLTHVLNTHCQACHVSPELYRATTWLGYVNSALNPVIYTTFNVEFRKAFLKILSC

D(2) dopamine receptor, sequence (P61169 whole entry): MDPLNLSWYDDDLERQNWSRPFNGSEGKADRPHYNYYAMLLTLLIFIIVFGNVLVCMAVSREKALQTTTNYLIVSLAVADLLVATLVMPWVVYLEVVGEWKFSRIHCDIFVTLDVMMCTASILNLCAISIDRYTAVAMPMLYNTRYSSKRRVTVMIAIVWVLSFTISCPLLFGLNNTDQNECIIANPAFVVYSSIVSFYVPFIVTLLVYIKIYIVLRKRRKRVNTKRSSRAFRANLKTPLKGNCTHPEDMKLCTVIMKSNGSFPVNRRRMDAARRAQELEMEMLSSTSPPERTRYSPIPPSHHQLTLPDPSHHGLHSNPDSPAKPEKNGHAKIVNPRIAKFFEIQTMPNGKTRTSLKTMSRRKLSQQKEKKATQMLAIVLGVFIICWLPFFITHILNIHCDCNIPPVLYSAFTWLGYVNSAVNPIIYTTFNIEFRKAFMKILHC
5-hydroxytryptamine receptor 1B (Rattus norvegicus, UniProt P28564), sequence (P28564 whole entry): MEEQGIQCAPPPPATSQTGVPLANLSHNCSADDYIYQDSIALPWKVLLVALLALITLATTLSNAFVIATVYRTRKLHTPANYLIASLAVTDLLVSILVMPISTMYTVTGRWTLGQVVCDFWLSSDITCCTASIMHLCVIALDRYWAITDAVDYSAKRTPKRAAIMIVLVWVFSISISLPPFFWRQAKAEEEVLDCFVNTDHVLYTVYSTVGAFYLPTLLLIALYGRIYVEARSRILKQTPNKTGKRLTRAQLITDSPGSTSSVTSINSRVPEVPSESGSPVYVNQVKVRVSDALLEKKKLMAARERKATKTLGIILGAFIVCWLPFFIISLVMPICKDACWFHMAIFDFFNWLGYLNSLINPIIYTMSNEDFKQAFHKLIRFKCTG
5-hydroxytryptamine 1D receptor, sequence (Q8MI13 whole entry): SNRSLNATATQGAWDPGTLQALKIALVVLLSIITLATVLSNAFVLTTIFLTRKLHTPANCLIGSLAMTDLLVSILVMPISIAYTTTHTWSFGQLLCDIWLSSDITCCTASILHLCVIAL
5-hydroxytryptamine receptor 2A, sequence (P14842 whole entry): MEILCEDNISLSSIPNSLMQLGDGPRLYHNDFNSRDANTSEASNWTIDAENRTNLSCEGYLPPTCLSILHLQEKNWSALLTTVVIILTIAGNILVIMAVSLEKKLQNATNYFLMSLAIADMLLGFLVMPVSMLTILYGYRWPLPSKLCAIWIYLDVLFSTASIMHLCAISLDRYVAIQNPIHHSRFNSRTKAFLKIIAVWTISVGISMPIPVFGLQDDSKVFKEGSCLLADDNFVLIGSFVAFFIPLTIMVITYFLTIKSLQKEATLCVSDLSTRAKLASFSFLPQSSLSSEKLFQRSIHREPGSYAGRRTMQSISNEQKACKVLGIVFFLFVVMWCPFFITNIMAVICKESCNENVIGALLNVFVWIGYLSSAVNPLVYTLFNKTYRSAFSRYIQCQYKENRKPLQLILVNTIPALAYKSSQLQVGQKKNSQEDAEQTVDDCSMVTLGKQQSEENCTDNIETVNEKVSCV
5-hydroxytryptamine receptor 1B (Homo sapiens, UniProt P28222), sequence (P28222 whole entry): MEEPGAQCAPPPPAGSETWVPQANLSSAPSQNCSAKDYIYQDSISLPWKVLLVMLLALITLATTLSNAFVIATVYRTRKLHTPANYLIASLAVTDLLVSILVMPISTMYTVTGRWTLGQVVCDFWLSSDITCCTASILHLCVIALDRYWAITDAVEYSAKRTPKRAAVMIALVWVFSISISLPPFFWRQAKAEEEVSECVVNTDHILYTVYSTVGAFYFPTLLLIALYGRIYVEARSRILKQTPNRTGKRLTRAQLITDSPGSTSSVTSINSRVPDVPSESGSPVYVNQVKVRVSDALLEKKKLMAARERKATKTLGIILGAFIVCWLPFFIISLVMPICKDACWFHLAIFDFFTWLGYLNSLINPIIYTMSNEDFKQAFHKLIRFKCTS
D(1A) dopamine receptor, sequence (P18901 whole entry): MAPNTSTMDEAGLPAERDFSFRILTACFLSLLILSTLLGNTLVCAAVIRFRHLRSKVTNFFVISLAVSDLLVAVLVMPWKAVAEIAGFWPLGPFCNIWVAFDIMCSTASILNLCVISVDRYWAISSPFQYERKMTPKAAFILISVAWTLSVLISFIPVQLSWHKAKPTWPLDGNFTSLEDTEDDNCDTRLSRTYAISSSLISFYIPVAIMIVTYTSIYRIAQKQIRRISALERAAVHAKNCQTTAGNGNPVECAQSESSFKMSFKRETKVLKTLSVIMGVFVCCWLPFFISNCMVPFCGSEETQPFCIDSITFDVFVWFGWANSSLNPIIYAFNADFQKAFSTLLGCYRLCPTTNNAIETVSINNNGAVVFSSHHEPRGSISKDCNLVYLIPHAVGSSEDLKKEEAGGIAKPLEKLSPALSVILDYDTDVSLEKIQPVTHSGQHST

pKi (D(2) dopamine receptor) | pKi [2] | pKi [3] | pKi [4] | pKi [5] | pKi (D(1A) dopamine receptor) | pKi [6] | pKi (D(3) dopamine receptor) | SMILES | pKi [1]
 |  |  |  |  |  |  |  | Cc1nc2n(c(=O)c1CCN1CCC(c3noc4cc(F)ccc34)CC1)CCCC2 [3-{2-[4-(6-Fluoro-benzo[d]isoxazol-3-yl)-piperidin-1-yl]-ethyl}-2-methyl-6,7,8,9-tetrahydro-pyrido[1,2-a]pyrimidin-4-one(risperidone)] | 5.40
8.46 and 8.41 and 8.17 and 8.34 | 7.33 | 6.93 | < 5.00 | 7.64 | 6.29 | 9.66 | 7.89 | Cc1nc2n(c(=O)c1CCN1CCC(c3noc4cc(F)ccc34)CC1)CCCC2O (stereo not given) [9-OH-risperidone] | 5.46
